Data reported in patent US20220380378A1 (ESSA Pharma, Inc., priority 2021, published 2022).

Tests used:
[1] = Microsomal stability assay, liver microsome half-life (human); type: in vitro ADME; conditions: pH 7.4; human liver microsomes 0.5 mg/mL, 1 μM compound, 37° C.; read-out: Liver microsome T1/2 Human
Description: (§1) Microsomal Stability Assay: Microsomal stability assay is a widely used in vitro model to characterize the metabolic conversion by phase I enzymes, such as cytochrome P450 (CYP) enzymes. Since metabolism is known to be highly variable in different species, microsomal stability assay is commonly run in multiple species. Metabolic stability of testing compound can be evaluated using human, rat, mouse, or other animal liver or intestine microsomes to predict intrinsic clearance.
(§2) The assay was carried out in 96-well microtiter plates at 37° C. Reaction mixtures (25 μL) contained a final concentration of 1 μM test compound, 0.5 mg/mL liver microsomes protein, and 1 mM NADPH and/or 1 mM UDPGA (with alamethicin) in 100 mM potassium phosphate, pH 7.4 buffer with 3 mM MgCl2. The incubation was done with N=1, but duplicate incubation at each time point can be prepared if necessary. At each of the time points (for example, 0, 15, 30, and 60 minutes), 150 μL of quench solution (100% acetonitrile with 0.1% formic acid) with internal standard was transferred to each well. Besides the zero minute controls, mixtures containing the same components except the NADPH can also be prepared as the negative control. Verapamil was included as a positive control to verify assay performance. Plates were sealed, vortexed, and centrifuged at 4° C. for 15 minutes at 4000 rpm. The supernatant is transferred to fresh plates for LC/MS/MS analysis.
(§3) Summarized conditions: [Compound]=1 μM, [LM]=0.5 mg/mL, [NADPH]=1 mM and/or [UDPGA]=1 mM, Buffer=100 mM Potassium Phosphate, pH 7.4 with 3 mM MgCl2, Time=0, 15, 30, and 60 min, and Temperature=37° C.
(§4) All samples were analyzed on LC/MS/MS using an AB Sciex API 4000 instrument, coupled to a Shimadzu LC-20AD LC Pump system. Analytical samples were separated using a Waters Atlantis T3 dC18 reverse phase HPLC column (20 mm×2.1 mm) at a flow rate of 0.5 mL/min. The mobile phase consisted of 0.1% formic acid in water (solvent A) and 0.1% formic acid in 100% acetonitrile (solvent B).
(§5) The extent of metabolism is calculated as the disappearance of the test compound, compared to the 0-min time incubation. Initial rates are calculated for the compound concentration and used to determine half-life (t½). […]

[2] = Microsomal stability assay, liver microsome half-life (monkey); type: in vitro ADME; conditions: pH 7.4; monkey liver microsomes 0.5 mg/mL, 1 μM compound, 37° C.; read-out: Liver microsome T1/2 Monkey
Description: as §1, §2, §3, §4
(§6) The extent of metabolism is calculated as the disappearance of the test compound, compared to the 0-min time incubation. Initial rates are calculated for the compound concentration and used to determine half-life (t½).

[3] = Microsomal stability assay, liver microsome half-life (mouse); type: in vitro ADME; conditions: pH 7.4; mouse liver microsomes 0.5 mg/mL, 1 μM compound, 37° C.; read-out: Liver microsome T1/2 Mouse
Description: as §1, §2, §3, §4, §5

[4] = Microsomal stability assay, liver microsome half-life (dog); type: in vitro ADME; conditions: pH 7.4; dog liver microsomes 0.5 mg/mL, 1 μM compound, 37° C.; read-out: Liver microsome T1/2 Dog
Description: as §1, §2, §3, §4, §6

androgen receptor (AR) = biological target: T1, androgen receptor (AR) (Homo sapiens, UniProt P10275, T878A); assay: Androgen-induced PSA (6.1 kb)-luciferase reporter assay in LNCaP cells (R1881 1 nM); type: cell-based; design: endogenous in cells; host or cells: LNCaP; conditions: 24 h, read-out: PSA-Luc IC50 Range
T1 sequence (P10275 1-920 T878A): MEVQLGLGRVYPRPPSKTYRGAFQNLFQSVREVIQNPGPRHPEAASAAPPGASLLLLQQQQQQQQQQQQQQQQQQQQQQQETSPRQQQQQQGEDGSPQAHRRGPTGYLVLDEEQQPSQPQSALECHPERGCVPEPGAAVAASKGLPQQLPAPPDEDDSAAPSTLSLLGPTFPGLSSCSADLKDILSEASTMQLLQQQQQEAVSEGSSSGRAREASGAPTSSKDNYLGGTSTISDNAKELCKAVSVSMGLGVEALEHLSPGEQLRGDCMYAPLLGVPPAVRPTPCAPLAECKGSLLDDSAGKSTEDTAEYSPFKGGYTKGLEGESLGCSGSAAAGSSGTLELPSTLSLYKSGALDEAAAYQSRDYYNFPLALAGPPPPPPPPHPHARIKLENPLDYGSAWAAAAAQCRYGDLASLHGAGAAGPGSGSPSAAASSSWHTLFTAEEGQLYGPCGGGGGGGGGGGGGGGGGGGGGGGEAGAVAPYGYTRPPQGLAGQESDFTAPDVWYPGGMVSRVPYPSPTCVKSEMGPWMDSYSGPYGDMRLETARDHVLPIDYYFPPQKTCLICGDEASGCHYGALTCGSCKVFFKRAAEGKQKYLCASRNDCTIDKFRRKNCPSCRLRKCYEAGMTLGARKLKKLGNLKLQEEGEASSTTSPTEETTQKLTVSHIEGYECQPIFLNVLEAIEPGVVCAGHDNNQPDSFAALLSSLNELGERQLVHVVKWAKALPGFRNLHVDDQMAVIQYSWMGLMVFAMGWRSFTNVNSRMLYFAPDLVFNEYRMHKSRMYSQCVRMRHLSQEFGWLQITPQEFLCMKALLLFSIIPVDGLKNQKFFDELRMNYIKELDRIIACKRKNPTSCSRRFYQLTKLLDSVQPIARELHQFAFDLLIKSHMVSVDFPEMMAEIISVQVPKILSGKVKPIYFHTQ
Outline: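 Compound or vehicle was added 1 h before 1 nM R1881 to LNCaP cells carrying a transiently transfected (24 h) PSA (6.1 kb)-luciferase reporter. After 24 h androgen exposure, lysate luminescence was normalized to protein and expressed versus vehicle plus R1881 for IC50.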

[5] = Microsomal stability assay, liver microsome half-life (rat); type: in vitro ADME; conditions: pH 7.4; rat liver microsomes 0.5 mg/mL, 1 μM compound, 37° C.; read-out: Liver microsome T1/2 Rat
Description: as §1, §2, §3, §4, §5

Structure (SMILES)	half-life at 1 μM [1]	half-life at 1 μM [2]	half-life at 1 μM [3]	half-life at 1 μM [4]	IC50 (androgen receptor (AR))	half-life at 1 μM [5]
C[C@@H](Oc1ccc(C(C)(C)c2cc(Cl)c(OCCCl)c(C#N)c2)cc1)C12CC(NS(C)(=O)=O)(C1)C2 [Compound A264]	> 2 h	0.8 h	> 2 h	> 2 h	500 to 2000 nM	> 2 h
CS(=O)(=O)Nc1ncc(Cn2ncc3c(-c4cc(Cl)c(OCCCl)c(C#N)c4)cccc32)cn1 [Compound A144]	> 2 h	> 2 h	> 2 h	> 2 h	500 to 2000 nM	> 2 h
CS(=O)(=O)N[C@H]1C[C@H](COc2ccc3c(ccn3-c3cc(Cl)c(OCCCl)c(C#N)c3)c2)C1 [Compound A135]	> 2 h	0.733 h	1.97 h	> 2 h	500 to 2000 nM	> 2 h
CC(Oc1ccc2c(ccn2-c2cc(Cl)c(OCCCl)c(C#N)c2)c1)C12CC(NS(C)(=O)=O)(C1)C2 (stereo not drawn) [Compound A180]	> 2 h	0.75 h	> 2 h	0.967 h	500 to 2000 nM	> 2 h
CC(c1cc(Cl)c(OCCCl)c(C#N)c1)n1cc(-c2ccc3nc(NS(C)(=O)=O)ncc3c2)cn1 (stereo not drawn) [Compound A141]	> 2 h	1.1 h	> 2 h	> 2 h	> 2000 nM	> 2 h
CC(C)(c1ccc(-c2ccn3nc(NS(C)(=O)=O)nc3c2)cc1)c1cc(Cl)c(OCCCl)c(C#N)c1 [Compound A113]	1.93 h	> 2 h	> 2 h	> 2 h	500 to 2000 nM	> 2 h
CC(C)(c1ccc(-c2ccc3nc(NS(C)(=O)=O)oc3c2)cc1)c1cc(Cl)c(OCCCl)c(C#N)c1 [Compound A254]	> 2 h	> 2 h	> 2 h	> 2 h	500 to 2000 nM	> 2 h
CS(=O)(=O)Nc1nccc(COc2ccc3c(c2)CCC3c2cc(Cl)c(OCCCl)c(C#N)c2)n1 (stereo not drawn) [Compound A35, N-(4-(((1-(3-chloro-4-(2-chloroethoxy)-5-cyanophenyl)-2,3-dihydro-1H-inden-5-yl)oxy)methyl)pyrimidin-2-yl)methanesulfonamide]	> 2 h	> 2 h	> 2 h	> 2 h	500 to 2000 nM	> 2 h
CS(=O)(=O)Nc1nccc(COc2ccc3c(ccn3-c3cc(Cl)c(OCCCl)c(C#N)c3)c2)n1 [Compound A36, N-(4-(((1-(3-chloro-4-(2-chloroethoxy)-5-cyanophenyl)-1H-indol-5-yl)oxy)methyl)pyrimidin-2-yl)methanesulfonamide]	> 2 h	> 2 h	> 2 h	> 2 h	< 500 nM	> 2 h
CC(C)(c1ccc(-c2ccc3c(c2)CCN(S(C)(=O)=O)C3)cc1)c1cc(Cl)c(OCCCl)c(C#N)c1 [Compound A114]	> 2 h	> 2 h	> 2 h	1.05 h	500 to 2000 nM	> 2 h

Now from value to compound:

half-life at 1 μM [1]	half-life at 1 μM [2]	half-life at 1 μM [3]	half-life at 1 μM [4]	IC50 (androgen receptor (AR))	half-life at 1 μM [5]	Structure (SMILES)
> 2 h	> 2 h	> 2 h	1.78 h	< 500 nM	> 2 h	CC(C)(c1ccc(-c2ccc3nc(NS(C)(=O)=O)ncc3c2)cc1)c1cc(Cl)c(OCCCl)c(C#N)c1 [Compound A51, N-[6-(4-{2-[3-chloro-4-(2-chloroethoxy)-5-cyanophenyl]propan-2-yl}phenyl)quinazolin-2-yl]methanesulfonamide]
> 2 h	> 2 h	> 2 h	> 2 h	< 500 nM	> 2 h	CC(C)(c1ccc(-c2ccc3nc(NS(C)(=O)=O)nc(N)c3c2)cc1)c1cc(Cl)c(OCCCl)c(C#N)c1 [Compound A173]
> 2 h	> 2 h	> 2 h	> 2 h	< 500 nM	> 2 h	CC(C)(c1ccc(-c2ccc3nc(NS(C)(=O)=O)ccc3n2)cc1)c1cc(Cl)c(OCCCl)c(C#N)c1 [Compound A191]
1.97 h	> 2 h	> 2 h	1.48 h	< 500 nM	> 2 h	CC(C)(c1ccc(-c2cnc3nc(NS(C)(=O)=O)ccc3c2)cc1)c1cc(Cl)c(OCCCl)c(C#N)c1 [Compound A194]
0.183 h	0.117 h	> 2 h	0.967 h	< 500 nM	> 2 h	CS(=O)(=O)N1CC(COc2ccc3c(ccn3-c3cc(Cl)c(OCCCl)c(C#N)c3)c2)C1 [Compound A59]
> 2 h	> 2 h	> 2 h	> 2 h	< 500 nM	> 2 h	CC(C)(c1ccc(OCc2ccnc(NS(C)(=O)=O)n2)cc1)c1ccc(OCC(O)CCl)cc1 (stereo not drawn) [Compound A150, N-(4-((4-(2-(4-(3-chloro-2-hydroxypropoxy)phenyl)propan-2-yl)phenoxy)methyl)pyrimidin-2-yl)methanesulfonamide]
> 2 h	> 2 h	> 2 h	> 2 h	< 500 nM	> 2 h	CC(C)(c1ccc(-c2ccc3nc(NS(C)(=O)=O)sc3c2)cc1)c1cc(Cl)c(OCCCl)c(C#N)c1 [Compound A274]
